The record followed here is ChEMBL document CHEMBL1201862, “PubChem BioAssay data set” (2004).

Each structure is given as a SMILES string.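 Dose response: 5 concentrations. Exposure: 48 h. Format: 96-well plates. Endpoint: linear interpolation; highest concentration if not reached. GI50 is the concentration that inhibits growth by half.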 Active and inactive are the calls of the source. Cut-off read from the data, not from the text of the source: active = GI50 up to about 1.1 µM and inactive = higher. Some results are limits rather than exact numbers.

Holding throughout (test): growth of human tumour cells (NCI), 48 h
The test system of assay [1] is SF-539.
Assay [2] deals with CCRF-CEM.
The test system of assay [3] is SF-295.
For assay [4], the system named is NCI-H23.
The subject of assay [5] is RXF 393.
For assay [6], the system named is SNB-75.
Assay [7] concerns PC-3.
Assay [8] deals with OVCAR-4.
The test system of assay [9] is COLO 205.
Assay [10] deals with ACHN.
The subject of assay [11] is UACC-62.
In assay [12] the test system is U-251.
Assay [13] has as its system BT-549.
Assay [14] relates to A549.
Assay [15] relates to HCT-15.
Assay [16] concerns KM12.
Assay [17] relates to OVCAR-8.
The subject of assay [18] is HOP-62.
Assay [19] has as its system RPMI-8226.
Assay [20] concerns DU-145.

As to `Nc1nn2c(C(Br)Br)cc(C(Br)Br)nc2c1[N+](=O)[O-]`, the GI50 in assay [1] was 0.785 µM (active); in assay [2], 0.161 µM (active); in [3] it was 1.77 µM (inactive); in assay [4], 1.98 µM (inactive); in [5], 1.37 µM (inactive); in assay [6], 1.08 µM (active). Besides, the GI50 is 1.36 µM (inactive) in [7]; 1.45 µM (inactive) in assay [8]; 0.659 µM (active) in assay [9]; 0.861 µM (active) in assay [10]; 1.81 µM (inactive) in [11]; 0.668 µM (active) in [12]. Moreover, the GI50 in assay [13] was 0.766 µM (active); in assay [14], 2.43 µM (inactive); in assay [15] it was 1.07 µM; in [16], 1.32 µM (inactive); in [17], 0.962 µM (active); in [18], 1.88 µM (inactive). Besides, the figures for the GI50 in [19] and in assay [20] were 0.239 µM (active) and 1.68 µM (inactive), respectively.
In the case of `Nc1nc(Cl)cc(NCCC2(CO)CCC2)n1`, the GI50 in [1], in [2], in assay [3], in assay [4], in assay [5] and in assay [6] was > 100 µM (inactive) throughout. The GI50 in assay [7], in assay [8], in assay [9], in assay [10], in [11] and in assay [12] was > 100 µM (inactive) each time. The GI50 in assay [13] is > 100 µM (inactive); in [14] it was > 100 µM (inactive); in assay [15], more than 100 µM; in assay [16], > 100 µM (inactive); in [17] it was > 100 µM (inactive); in [18] it was > 100 µM (inactive). Moreover, the GI50 in assay [19] and in assay [20] was > 100 µM (inactive) each time.
As to `COC(=O)/C(=N\Nc1nnc(C)n1N)C(C#N)c1ccccc1` (stereo not given), the GI50 in assay [1] was 64.1 µM (inactive); in assay [2], > 100 µM (inactive); in [3], > 100 µM (inactive); in [4], 24.1 µM (inactive); in assay [5] it was > 100 µM (inactive); in assay [6] it was > 64.9 µM (inactive). In addition, the GI50 in [7] was > 100 µM (inactive); in assay [8] it was > 40 µM (inactive); in [9], > 63.2 µM (inactive); in [10], 27.8 µM (inactive); in assay [11] it was > 100 µM (inactive); in assay [12], > 77.4 µM (inactive). Besides, the GI50 in [13] was > 100 µM (inactive); in assay [14], > 92.7 µM (inactive); in [15], 56.5 µM; in assay [16], > 100 µM (inactive); in assay [17], > 73.3 µM (inactive); in [18], > 100 µM (inactive). Besides, the GI50 in [19] was 99.5 µM (inactive); in [20], > 100 µM (inactive).
Turning to `CCc1n[nH]c(=O)n1NC(=O)c1ccccc1C(=O)O`, the GI50 in [1], in assay [2], in assay [3], in assay [4], in assay [5] and in assay [6] was > 100 µM (inactive) throughout. Also, the GI50 in [7], in assay [8], in assay [9], in assay [10], in assay [11] and in assay [12] was > 100 µM (inactive) in each case. In addition, the GI50 in assay [13] is > 100 µM (inactive); in assay [14] it was > 100 µM (inactive); in [15], more than 100 µM; in [16], > 100 µM (inactive); in assay [17] it was > 100 µM (inactive); in [18] it was > 100 µM (inactive). In addition, the GI50 in assay [19] and in assay [20] was > 100 µM (inactive) throughout.
Regarding `O=[N+]([O-])c1cc(Cc2cc([N+](=O)[O-])c3cccnc3c2O)c(O)c2ncccc12`, the GI50 in assay [1] is 10.6 µM (inactive); in assay [2], 1.77 µM (inactive); in [3], 6.15 µM (inactive); in [4], 9.48 µM (inactive); in assay [5], 5.32 µM (inactive); in assay [6] it was 7.18 µM (inactive). Further, the GI50 in assay [7] is 4.41 µM (inactive); in [8], 4.05 µM (inactive); in assay [9], 19.7 µM (inactive); in [10], 5.6 µM (inactive); in assay [11], 9.48 µM (inactive); in [12], 3.91 µM (inactive). Moreover, the GI50 in assay [13] was 21.7 µM (inactive); in assay [14], 6.56 µM (inactive); in [15], 4.23 µM; in [16], 6.71 µM (inactive); in assay [17] it was 3.6 µM (inactive); in [18], 9.1 µM (inactive). For the same compound, the GI50 in assay [19] is 4.57 µM (inactive); in assay [20], 9.89 µM (inactive).
As to `CCn1c2ccc(C(=O)CCCN(C)C)cc2c2cc(C(=O)CCCN(C)C)ccc21`, the GI50 was 0.805 µM (active) in assay [1]; 0.395 µM (active) in assay [2]; 3.64 µM (inactive) in assay [3]; 1.61 µM (inactive) in assay [4]; 1.68 µM (inactive) in assay [5]; 2.97 µM (inactive) in assay [6]. The GI50 in [7] was 1.3 µM (inactive); in assay [8], 1.18 µM (inactive); in [9], 1.06 µM (active); in [10] it was 0.759 µM (active); in [11] it was 7.59 µM (inactive); in [12], 2.24 µM (inactive). The GI50 in assay [13] is 3.38 µM (inactive); in assay [14], 0.867 µM (active); in [15], 1.27 µM; in [16], 1.18 µM (inactive); in [17], 0.533 µM (active); in assay [18] it was 0.701 µM (active). The GI50 in assay [19] is 1.77 µM (inactive); in assay [20], 2.52 µM (inactive).
As for `N#Cc1cc2c(n(C3OC(CO)C(O)C(O)C3O)c1=S)CCC2` (stereo not given), the GI50 in [1] is > 100 µM (inactive); in assay [2], > 100 µM (inactive); in assay [3] it was > 100 µM (inactive); in assay [4], > 100 µM (inactive); in [5], > 100 µM (inactive); in assay [6] it was 97.3 µM (inactive). The GI50 in [7], in assay [8], in assay [9], in assay [10], in [11] and in [12] was > 100 µM (inactive) throughout. Further, the GI50 in assay [13] is > 100 µM (inactive); in assay [14] it was > 100 µM (inactive); in assay [15], more than 100 µM; in assay [16], > 100 µM (inactive); in assay [17] it was > 100 µM (inactive); in assay [18], > 100 µM (inactive). In addition, the GI50 in assay [19] and in assay [20] was > 100 µM (inactive) in each case.
In the case of `O=C1C2CC[C@@H]3C(=O)C(Cl)(Cl)[C@@H]3CCC2C1(Cl)Cl` (stereo not given in full), the GI50 in [1] is > 44.4 µM (inactive); in assay [2], 23.3 µM (inactive); in assay [3] it was > 100 µM (inactive); in assay [4], > 100 µM (inactive); in assay [5], > 87.7 µM (inactive); in assay [6], > 100 µM (inactive). For the same compound, the GI50 was > 100 µM (inactive) in [7]; > 100 µM (inactive) in [8]; 71 µM (inactive) in assay [9]; > 100 µM (inactive) in assay [10]; > 86.9 µM (inactive) in [11]; > 100 µM (inactive) in assay [12]. For the same compound, the GI50 in assay [13] is > 100 µM (inactive); in [14], > 100 µM (inactive); in assay [15], 98.6 µM; in [16] it was > 100 µM (inactive); in assay [17] it was > 100 µM (inactive); in assay [18], 3.24 µM (inactive). Further, the GI50 in [19] is 32.4 µM (inactive); in assay [20] it was > 100 µM (inactive).
In the case of `CC(=O)c1ccc2c(c1)CC1(C2)Cc2ccccc2C1=O` (stereo not given), the GI50 in assay [1] is > 100 µM (inactive); in assay [2], 29.5 µM (inactive); in assay [3], 56 µM (inactive); in assay [4] it was 78.9 µM (inactive); in [5], 42.5 µM (inactive); in [6], 34.5 µM (inactive). Besides, the GI50 in [7] was 35.2 µM (inactive); in [8] it was 31.4 µM (inactive); in assay [9], 34 µM (inactive); in assay [10], 54 µM (inactive); in [11] it was 55.6 µM (inactive); in [12], 67.5 µM (inactive). The GI50 in assay [13] was 43.4 µM (inactive); in [14] it was 37.8 µM (inactive); in [15], 51.5 µM; in [16], 43.3 µM (inactive); in [17], 37.9 µM (inactive); in assay [18] it was > 100 µM (inactive). Besides, the GI50 in assay [19] was 33.6 µM (inactive); in assay [20], > 100 µM (inactive).
For the compound `CC(C)(C)C1CCC2c3c([nH]c4ccccc34)C3C(=O)N(c4cccc(Cl)c4)C(=O)C3C2C1` (stereo not given), the GI50 in [1] is 17.5 µM (inactive); in assay [2] it was 4.3 µM (inactive); in assay [3], 18.5 µM (inactive); in [4] it was 8.49 µM (inactive); in [5], 8.36 µM (inactive); in assay [6] it was 14.1 µM (inactive). Further, the GI50 in assay [7] was 7.1 µM (inactive); in [8], 14.6 µM (inactive); in assay [9] it was 12 µM (inactive); in [10] it was 9.33 µM (inactive); in assay [11], 12.9 µM (inactive); in assay [12], 13.9 µM (inactive). The GI50 in assay [13] is 21.1 µM (inactive); in [14] it was 14.2 µM (inactive); in assay [15] it was 14.5 µM; in [16], 5.01 µM (inactive); in assay [17], 17.7 µM (inactive); in assay [18], 0.518 µM (active). The GI50 in assay [19] is 9.27 µM (inactive); in [20], 11.7 µM (inactive).
